# Source: ChEMBL document CHEMBL1201862, “PubChem BioAssay data set” (2004)
# Where “and” joins values, the source holds several entries; their conditions need not be identical. Identical values can stand only once.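 Tested at 5 concentrations; 48 h exposure; 96-well plates; endpoints linearly interpolated, else capped at highest concentration. At the GI50, growth is halved.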 Calls of active or inactive are those of the source. Rule as the data show it: active = GI50 up to about 1.1 µM and inactive = higher.
# Columns and labels:
# Experiment in all cases: inhibition of tumour cell growth, NCI panel, 48 h
# DMS-114 = system: DMS-114
# DMS-273 = system: DMS-273
# EKVX = system: EKVX
# HCT-15 = system: HCT-15
# KM12 = system: KM12
# LOX IMVI = system: LOX IMVI
# M19-MEL = system: M19-MEL
# Malme-3M = system: Malme-3M
# NCI-H23 = system: NCI-H23
# NCI-H460 = system: NCI-H460
# OVCAR-3 = system: OVCAR-3
# OVCAR-8 = system: OVCAR-8
# SF-539 = system: SF-539
# SK-MEL-28 = system: SK-MEL-28
# SNB-19 = system: SNB-19
# SNB-78 = system: SNB-78
# TK-10 = system: TK-10
# UACC-62 = system: UACC-62
# XF498 = system: XF498
# NCI-H522 = system: NCI-H522
Structure (SMILES),GI50 (DMS-114),GI50 (DMS-273),GI50 (EKVX),GI50 (HCT-15) [µM],GI50 (KM12),GI50 (LOX IMVI),GI50 (M19-MEL),GI50 (Malme-3M),GI50 (NCI-H23),GI50 (NCI-H460),GI50 (OVCAR-3),GI50 (OVCAR-8),GI50 (SF-539),GI50 (SK-MEL-28),GI50 (SNB-19),GI50 (SNB-78),GI50 (TK-10),GI50 (UACC-62),GI50 (XF498),GI50 (NCI-H522)
COc1c(Sc2ccccc2)cc(Sc2ccccc2)c2cccnc12,24.1 µM (inactive),20 µM (inactive),28.2 µM (inactive),15.4,24.4 µM (inactive),17.6 µM (inactive),28.9 µM (inactive),15.1 µM (inactive),19.5 µM (inactive),20.2 µM (inactive),20.9 µM (inactive),27.4 µM (inactive),26.2 µM (inactive),35.9 µM (inactive),31.8 µM (inactive),34 µM (inactive),23.2 µM (inactive),18.2 µM (inactive),17.7 µM (inactive),
O=S(=O)(O)c1cc(/N=N/c2cc(S(=O)(=O)O)c3ccccc3c2O)ccc1/C=C/c1ccc(/N=N/c2cc(S(=O)(=O)O)c3ccccc3c2O)cc1S(=O)(=O)O,> 100 µM (inactive),> 83 µM (inactive),> 399 µM (inactive),98.6,,> 305 µM (inactive),> 100 µM (inactive),> 333 µM (inactive),> 537 µM (inactive),> 437 µM (inactive),> 553 µM (inactive),> 755 µM (inactive),> 386 µM (inactive),594 µM (inactive),> 733 µM (inactive),> 100 µM (inactive),24.9 µM (inactive),> 312 µM (inactive),> 100 µM (inactive),> 492 µM (inactive)
O=C1CCCC/C1=C1\C(=O)Nc2cc(F)ccc21,> 100 µM (inactive),> 100 µM (inactive),> 100 µM (inactive),> 100,> 100 µM (inactive),> 100 µM (inactive),> 100 µM (inactive),> 100 µM (inactive),> 100 µM (inactive),> 100 µM (inactive),,> 100 µM (inactive),> 100 µM (inactive),> 100 µM (inactive),> 100 µM (inactive),> 100 µM (inactive),> 100 µM (inactive),> 100 µM (inactive),> 100 µM (inactive),> 100 µM (inactive)
COc1ccc2c(c1)CC[C@@H]1C2CC[C@]2(C)C(=N\O)/C(=N/O)CC12 (stereo not given in full),,12 µM (inactive),18.7 µM (inactive),12.4,11.2 µM (inactive),2.43 µM (inactive),17.2 µM (inactive),17.7 µM (inactive),10.2 µM (inactive),3.41 µM (inactive),12.4 µM (inactive),16.5 µM (inactive),18.5 µM (inactive),,16.6 µM (inactive),17 µM (inactive),18.2 µM (inactive),13.4 µM (inactive),14.5 µM (inactive),2.93 µM (inactive)
Nc1ccc(C(=O)/C=C/c2ccccc2O)cc1,,> 10 µM (inactive),> 100 µM (inactive),> 100,> 100 µM (inactive),> 100 µM (inactive),> 100 µM (inactive),> 100 µM (inactive),> 100 µM (inactive),> 100 µM (inactive),> 100 µM (inactive),> 100 µM (inactive),> 100 µM (inactive),> 100 µM (inactive),> 100 µM (inactive),> 100 µM (inactive),> 100 µM (inactive),> 100 µM (inactive),> 100 µM (inactive),> 100 µM (inactive)
CC(=O)CC(=O)ON(C)C(C)=O,> 100 µM (inactive),> 100 µM (inactive),,,> 100 µM (inactive),> 100 µM (inactive),> 100 µM (inactive),> 100 µM (inactive),43.4 µM (inactive),> 100 µM (inactive),> 100 µM (inactive),> 100 µM (inactive),> 100 µM (inactive),> 100 µM (inactive),> 100 µM (inactive),> 100 µM (inactive),> 100 µM (inactive),> 100 µM (inactive),> 100 µM (inactive),> 100 µM (inactive)
Clc1ccccc1C1=NN(c2ccccc2)C2c3cc(Br)ccc3OCC12 (stereo not given),> 100 µM (inactive),> 100 µM (inactive),89.9 µM (inactive),,> 100 µM (inactive),> 10 µM (inactive),> 100 µM (inactive),> 100 µM (inactive),> 100 µM (inactive),> 100 µM (inactive),> 100 µM (inactive),> 100 µM (inactive),> 100 µM (inactive),> 100 µM (inactive),> 100 µM (inactive),> 100 µM (inactive),> 100 µM (inactive),,> 100 µM (inactive),> 100 µM (inactive)
CN(C)CC/[N+]([O-])=C(/c1ccccc1)C12CC3CC(CC(C3)C1)C2,20.2 µM (inactive),,21 µM (inactive),19.1,18.3 µM (inactive),15.3 µM (inactive),13.8 µM (inactive),39.7 µM (inactive),20.1 µM (inactive),18.4 µM (inactive),14.7 µM (inactive),17.9 µM (inactive),16.5 µM (inactive),16.2 µM (inactive),18.2 µM (inactive),19 µM (inactive),16.7 µM (inactive),14 µM (inactive),13.2 µM (inactive),15.1 µM (inactive)
O=C1c2cccc(O)c2C(=O)c2c(O)cccc21 [DANTHRON],38 µM (inactive),31.6 µM (inactive),98.9 µM (inactive),74.8,> 100 µM (inactive),55.8 µM (inactive),3.66 µM (inactive),,> 100 µM (inactive),30.3 µM (inactive),28.3 µM (inactive),> 100 µM (inactive),53.6 µM (inactive),> 100 µM (inactive),> 100 µM (inactive),> 100 µM (inactive),> 100 µM (inactive),16 µM (inactive),> 100 µM (inactive),62.7 µM (inactive)
Cc1ccc(S(=O)(=O)c2ccccc2[N+](=O)[O-])cc1,44.6 µM (inactive),> 100 µM (inactive),> 100 µM (inactive),> 100,> 100 µM (inactive),,> 100 µM (inactive),85.1 µM (inactive),55.2 µM (inactive),> 100 µM (inactive),> 100 µM (inactive),> 100 µM (inactive),> 100 µM (inactive),> 100 µM (inactive),,> 100 µM (inactive),> 100 µM (inactive),37.4 µM (inactive),> 100 µM (inactive),
CCOC(=O)c1cn2c([nH]c3ccccc32)c(C#N)c1=O,,> 100 µM (inactive),> 100 µM (inactive),> 100,> 100 µM (inactive),25.7 µM (inactive),> 100 µM (inactive),> 100 µM (inactive),> 100 µM (inactive),47 µM (inactive),> 100 µM (inactive),> 100 µM (inactive),> 100 µM (inactive),> 100 µM (inactive),> 100 µM (inactive),> 100 µM (inactive),> 100 µM (inactive),> 100 µM (inactive),> 100 µM (inactive),> 100 µM (inactive)
COc1ccc2cc3nc(O)cc(O)c3cc2c1OC,> 100 µM (inactive),,> 100 µM (inactive),> 100,> 100 µM (inactive),> 100 µM (inactive),> 100 µM (inactive),> 100 µM (inactive),> 100 µM (inactive),> 100 µM (inactive),> 100 µM (inactive),> 100 µM (inactive),> 100 µM (inactive),> 100 µM (inactive),> 100 µM (inactive),> 100 µM (inactive),> 100 µM (inactive),> 100 µM (inactive),> 100 µM (inactive),
COc1ccc(C2=NNC(=O)OC2c2ccccc2)cc1 (stereo not given),71.8 µM (inactive),,76 µM (inactive),37.7,40.9 µM (inactive),55 µM (inactive),55.7 µM (inactive),52.8 µM (inactive),53.5 µM (inactive),53.2 µM (inactive),81.8 µM (inactive),> 100 µM (inactive),> 100 µM (inactive),> 100 µM (inactive),67.1 µM (inactive),95.7 µM (inactive),> 100 µM (inactive),59.2 µM (inactive),74 µM (inactive),
Fc1ccc2c(c1)SC1Oc3ccccc3-c3c1c-2nn3-c1ccccc1 (stereo not given),> 100 µM (inactive),> 100 µM (inactive),> 100 µM (inactive),,> 100 µM (inactive),> 100 µM (inactive),> 100 µM (inactive),> 100 µM (inactive),> 100 µM (inactive),> 100 µM (inactive),> 100 µM (inactive),> 100 µM (inactive),> 100 µM (inactive),> 100 µM (inactive),,> 100 µM (inactive),> 100 µM (inactive),,> 100 µM (inactive),37.9 µM (inactive)
COC1OC(COC(C)=O)C(OC(C)=O)C(OC(C)=O)C1NC(=O)N(CCCl)N=O (stereo not given),> 100 µM (inactive),> 100 µM (inactive),> 100 µM (inactive),,> 100 µM (inactive),61.4 µM (inactive) and 47.3 µM (inactive),> 100 µM (inactive),> 100 µM (inactive),> 100 µM (inactive),63 µM (inactive) and 44.6 µM (inactive),> 100 µM (inactive),> 100 µM (inactive),,> 100 µM (inactive),> 100 µM (inactive) and 69.7 µM (inactive),> 100 µM (inactive),> 100 µM (inactive),26.2 µM (inactive) and 25.6 µM (inactive),> 100 µM (inactive),24.1 µM (inactive) and 45.9 µM (inactive)
